Our source for the inhibition and IC50 values is US10821100B2, “Triazolone compounds as mPGES-1 inhibitors” (Glenmark Pharmaceuticals S.A., priority 2012, dated 2020).

The target of the test is T1, Recombinant human mPGES-1 (Homo sapiens, UniProt O14684).
T1 construct: made in house; host or cells: CHO cells (crude microsomal fractions)
T1 sequence (O14684 1-152): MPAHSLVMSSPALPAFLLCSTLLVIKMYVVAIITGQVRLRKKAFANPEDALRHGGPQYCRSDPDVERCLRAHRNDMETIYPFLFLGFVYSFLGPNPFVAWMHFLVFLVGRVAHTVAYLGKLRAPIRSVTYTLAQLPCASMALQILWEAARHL
In words: In-vitro screening of mPGES-1 inhibitors (inhibition of PGE2 formation from PGH2, HTRF detection). Particulars: mPGES-1 enzyme; for inhibition at 1 µM: 1 μM test compound, read-out: Percentage inhibition at 1 μM; for inhibition at 1 µM / inhibition at 10 µM: crude microsomal fractions; for inhibition at 10 µM: 10 μM test compound, read-out: Percentage inhibition at 10 μM; for IC50: class symbols. It counts as biochemical. In a few lines: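 PGH2-to-PGE2 isomerization run for 1 min with 15 μM PGH2 after 10 min compound preincubation with microsomal enzyme (40–60 μg/mL) and 2.5 mM GSH, pH buffer 0.1 M potassium phosphate with EDTA. Stannous chloride quench, HTRF PGE2 readout, IC50 fitted against uninhibited reaction.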
A general note: TR-FRET usually uses a lanthanide donor and a delayed reading to cut background.

Where only a bound is given, the exact number is not on record here.

A word on the inhibition: it is the drop in the measured response relative to a control, in per cent. A word on the IC50: it is the midpoint of a concentration-inhibition curve. Take `COCC(C)(C)C(=O)NCc1ccc(Cl)c(-c2nn(-c3ccc(C(F)(F)F)cc3)c(=O)[nH]2)c1` [Example-122, N-(4-Chloro-3-(1-(4-(trifluoromethyl)phenyl)-4,5-dihydro-5-oxo-1H-1,2,4-triazol-3-yl)benzyl)-3-methoxy-2,2-dimethylpropanamide]: the inhibition at 1 µM stood at 92.2%, the inhibition at 10 µM was 93.5% and the IC50 is less than 0.05 µM.
Take `CC(C)(C)C(=O)NCc1ccc(Cl)c(-c2nn(-c3ccc(Cl)c(F)c3)c(=O)[nH]2)c1` [Example-123, N-(4-Chloro-3-(1-(4-chloro-3-fluorophenyl)-4,5-dihydro-5-oxo-1H-1,2,4-triazol-3-yl)benzyl)pivalamide]: the inhibition at 1 µM came to 93.8%, the inhibition at 10 µM was 100% and the IC50 is less than 0.05 µM.
`CC1(C)CCC(n2nc(-c3cc(CNC(=O)C(F)(F)F)c(F)cc3Cl)[nH]c2=O)CC1` [Example-124, N-(4-chloro-2-fluoro-5-(4,5-dihydro-1-(4,4-dimethylcyclohexyl)-5-oxo-1H-1,2,4-triazol-3-yl)benzyl)-2,2,2-trifluoroacetamide]: the inhibition at 1 µM was 28% and the inhibition at 10 µM was found to be 89%.
Take `CC1(C)CCC(n2nc(-c3cc(CNC(=O)C(C)(C)C)c(F)cc3Cl)[nH]c2=O)CC1` [Example-125, N-(4-Chloro-2-fluoro-5-(4,5-dihydro-1-(4,4-dimethylcyclohexyl)-5-oxo-1H-1,2,4-triazol-3-yl)benzyl)pivalamide]: the inhibition at 1 µM turned out to be 79.9% and the inhibition at 10 µM was found to be 95%.
For the molecule `CC(C)(C)C(=O)NCc1cc(-c2nn(-c3ccc(Cl)cc3)c(=O)[nH]2)c(Cl)cc1F` [Example-126, N-(4-Chloro-5-(1-(4-chlorophenyl)-4,5-dihydro-5-oxo-1H-1,2,4-triazol-3-yl)-2-fluorobenzyl)pivalamide], the inhibition at 1 µM was determined as 100%, the inhibition at 10 µM was 99.3% and the IC50 was less than 0.05 µM.
Regarding `COc1cc(Cl)c(-c2nn(-c3ccc(C(F)(F)F)cc3)c(=O)[nH]2)cc1CNC(=O)C(C)(C)C` [Example-127, N-(4-Chloro-5-(1-(4-(trifluoromethyl)phenyl)-4,5-dihydro-5-oxo-1H-1,2,4-triazol-3-yl)-2-methoxybenzyl)pivalamide], the inhibition at 1 µM was found to be 32.4% and the inhibition at 10 µM was 58.5%.
In the case of `CC(C)(C)C(=O)NCc1cc(-c2nn(-c3ccc(F)c(C(F)(F)F)c3)c(=O)[nH]2)c(Cl)cc1F` [Example-128, N-(4-Chloro-2-fluoro-5-(1-(4-fluoro-3-(trifluoromethyl)phenyl)-4,5-dihydro-5-oxo-1H-1,2,4-triazol-3-yl)benzyl)pivalamide], the inhibition at 1 µM amounted to 91.8%, the inhibition at 10 µM worked out at 89.3% and the 50% inhibitory concentration (IC50) was less than 0.05 µM.
In the same order, the values of `CC(C)(C)C(=O)NCc1cc(-c2nn(-c3ccc(C(F)(F)F)nc3)c(=O)[nH]2)c(Cl)cc1F` [Example-129, N-(4-Chloro-2-fluoro-5-(1-(6-(trifluoromethyl)pyridin-3-yl)-4,5-dihydro-5-oxo-1H-1,2,4-triazol-3-yl)benzyl)pivalamide] are 93.5%, 92.1% and less than 0.05 µM.
In the same order, the values of `CC(C)(C)C(=O)NCc1cc(-n2nc(-c3ccc(C#CC4CC4)cc3)[nH]c2=O)c(Cl)cc1Cl` [Example-130, N-(2,4-Dichloro-5-(3-(4-(2-cyclopropylethynyl)phenyl)-4,5-dihydro-5-oxo-1,2,4-triazol-1-yl)benzyl)pivalamide] are 96.6%, 97.8% and 0.05 to 0.1 µM.
Consider `CC(C)(C)C(=O)NCc1cc(-c2nn(-c3ccc(F)c(Cl)c3)c(=O)[nH]2)c(Cl)cc1F` [Example-131, N-(4-Chloro-5-(1-(3-chloro-4-fluorophenyl)-4,5-dihydro-5-oxo-1H-1,2,4-triazol-3-yl)-2-fluorobenzyl)pivalamide], for which the inhibition at 1 µM stood at 100%, the inhibition at 10 µM worked out at 99.2% and the IC50 is less than 0.05 µM.
`O=C(NCc1cc(-c2nn(-c3ccc(Cl)cc3)c(=O)[nH]2)c(Cl)cc1F)c1ccccc1F` [Example-132, N-(4-Chloro-5-(1-(4-chlorophenyl)-4,5-dihydro-5-oxo-1H-1,2,4-triazol-3-yl)-2-fluorobenzyl)-2-fluorobenzamide]: the inhibition at 1 µM worked out at 91.8%, the inhibition at 10 µM was determined as 89.8% and the half-maximal inhibitory concentration (IC50) is less than 0.05 µM.
On to `CC(C)C(=O)NCc1cc(-c2nn(-c3ccc(C(F)(F)F)cc3)c(=O)[nH]2)c(Cl)cc1F` [Example-133, N-(4-Chloro-2-fluoro-5-(1-(4-(trifluoromethyl)phenyl)-4,5-dihydro-5-oxo-1H-1,2,4-triazol-3-yl)benzyl)isobutyramide], for which the inhibition at 1 µM worked out at 98%, the inhibition at 10 µM is 97.9% and the IC50 was less than 0.05 µM.
Take `CC(C)(CF)C(=O)NCc1cc(-c2nn(-c3ccc(Cl)cc3)c(=O)[nH]2)c(Cl)cc1F` [Example-134, N-(4-Chloro-5-(1-(4-chlorophenyl)-4,5-dihydro-5-oxo-1H-1,2,4-triazol-3-yl)-2-fluorobenzyl)-3-fluoro-2,2-dimethylpropanamide]: the inhibition at 1 µM was 91.5%, the inhibition at 10 µM came out at 93.9% and the IC50 was less than 0.05 µM.
For the molecule `Cc1ccc(-n2nc(-c3cc(CNC(=O)C(C)(C)C)c(F)cc3Cl)[nH]c2=O)cc1Cl` [Example-135, N-(4-Chloro-5-(1-(3-chloro-4-methylphenyl)-4,5-dihydro-5-oxo-1H-1,2,4-triazol-3-yl)-2-fluorobenzyl)pivalamide], the inhibition at 1 µM amounted to 92.3%, the inhibition at 10 µM turned out to be 98.9% and the IC50 is less than 0.05 µM.
On to `CC(C)(C)C(=O)NCc1cc(-n2nc(-c3ccc(C#CC4CC4)cc3)[nH]c2=O)c(Cl)cc1F` [Example-136, N-(4-Chloro-5-(3-(4-(2-cyclopropylethynyl)phenyl)-4,5-dihydro-5-oxo-1,2,4-triazol-1-yl)-2-fluorobenzyl)pivalamide], for which the inhibition at 1 µM came out at 95.1%, the inhibition at 10 µM is 94.8% and the IC50 is less than 0.05 µM.
Regarding `CC(C)(C)C#Cc1ccc(-c2nn(-c3cc(CNC(=O)C(C)(C)C)c(F)cc3Cl)c(=O)[nH]2)cc1` [Example-137, N-(4-Chloro-2-fluoro-5-(4,5-dihydro-3-(4-(3,3-dimethylbut-1-ynyl)phenyl)-5-oxo-1,2,4-triazol-1-yl)benzyl)pivalamide], the inhibition at 1 µM is 93.4%, the inhibition at 10 µM was 93.1% and the IC50 is less than 0.05 µM.
For the molecule `CC(C)(C)C(=O)NCc1ccc(Cl)c(-c2nn(-c3ccc(C(F)(F)F)nc3)c(=O)[nH]2)c1` [Example-138, N-(4-Chloro-3-(1-(6-(trifluoromethyl)pyridin-3-yl)-4,5-dihydro-5-oxo-1H-1,2,4-triazol-3-yl)benzyl)pivalamide], the inhibition at 1 µM was 93.3%, the inhibition at 10 µM was determined as 92.9% and the concentration for half-maximal inhibition (IC50) was less than 0.05 µM.
Take `CC(C)(C)C(=O)NCc1ccc(Cl)c(-c2nn(-c3ccc(F)c(Cl)c3)c(=O)[nH]2)c1` [Example-139, N-(4-Chloro-3-(1-(3-chloro-4-fluorophenyl)-4,5-dihydro-5-oxo-1H-1,2,4-triazol-3-yl)benzyl)pivalamide]: the inhibition at 1 µM was 93.9%, the inhibition at 10 µM is 99.1% and the IC50 was less than 0.05 µM.
For the molecule `Cc1ccc(-n2nc(-c3cc(CNC(=O)C(C)(C)C)ccc3Cl)[nH]c2=O)cc1Cl` [Example-140, N-(4-Chloro-3-(1-(3-chloro-4-methylphenyl)-4,5-dihydro-5-oxo-1H-1,2,4-triazol-3-yl)benzyl)pivalamide], the inhibition at 1 µM worked out at 97.4%, the inhibition at 10 µM is 98.1% and the half-maximal inhibitory concentration (IC50) was less than 0.05 µM.
With `CC(C)(C)C(=O)NCc1ccc(Cl)c(-n2nc(-c3ccc(C#CC4CC4)cc3)[nH]c2=O)c1` [Example-141, N-(4-Chloro-3-(3-(4-(2-cyclopropylethynyl)phenyl)-4,5-dihydro-5-oxo-1,2,4-triazol-1-yl)benzyl)pivalamide], the inhibition at 1 µM is 97.6%, the inhibition at 10 µM stood at 97.5% and the IC50 is less than 0.05 µM.
In the case of `CC(C)(C)C(=O)NCc1ccc(Cl)c(-c2nn(-c3cccc(C(F)(F)F)c3)c(=O)[nH]2)c1` [Example-142, N-(4-Chloro-3-(1-(3-(trifluoromethyl)phenyl)-4,5-dihydro-5-oxo-1H-1,2,4-triazol-3-yl)benzyl)pivalamide], the inhibition at 1 µM amounted to 97.2%, the inhibition at 10 µM is 94% and the half-inhibitory concentration (IC50) is less than 0.05 µM.
In the case of `CC(C)C(=O)NCc1ccc(Cl)c(-n2nc(-c3ccc(C#CC(C)(C)C)cc3)[nH]c2=O)c1` [Example-143, N-(4-Chloro-3-(4,5-dihydro-3-(4-(3,3-dimethylbut-1-ynyl)phenyl)-5-oxo-1,2,4-triazol-1-yl)benzyl)isobutyramide], the inhibition at 1 µM stood at 99.2%, the inhibition at 10 µM was determined as 90.7% and the IC50 is less than 0.05 µM.
Consider `CC(C)C(=O)NCc1ccc(Cl)c(-c2nn(-c3ccc(C(F)(F)F)cc3)c(=O)[nH]2)c1` [Example-144, N-(4-Chloro-3-(1-(4-(trifluoromethyl)phenyl)-4,5-dihydro-5-oxo-1H-1,2,4-triazol-3-yl)benzyl)isobutyramide], for which the inhibition at 1 µM was 97.5%, the inhibition at 10 µM worked out at 92.7% and the IC50 was less than 0.05 µM.
